Patent US5583155A, “6-amino-1,2-benzopyrones useful for treatment of viral diseases” (Octamer, Inc., priority 1994, dated 1996)
Where “and” joins values, the source holds several entries; their conditions need not be identical. Equal values may be shown once.

What was measured:
ADPRT [1] = test: Binding to ADPRT; details: 6-nitroso oxidation product
ADPRT [2] = details: Proc. Nat. Acad. Sci. (USA), 84:1107 (1987); cited from earlier work
CMV = details: cited from earlier work
oris DNA of HSV-1 = test: Nitrocellulose filter binding to HSV-1 oris DNA; details: input oris DNA 8,000/sample
Experimental: This example illustrates HSV DNA binding at the site of replication (oris) initiation at ADPRT.
The 230 bp XbaI-HindIII oris DNA of HSV-1 was isolated from plasmid pKC4 and radioactively labeled with [32P]dCTP by fill-in reaction with the Klenow form of E. coli DNA polymerase. Labeled DNA fragments were purified as previously described in J. Virol., 63:2773 (1989).
Nitrocellulose filters (Schleicher and Schuell, BA 85, […] pore size, 27 mm diameter) were presoaked for 60 minutes in binding buffer (250 mM Tris-Cl, pH 8.0, 100 mM MgCl2, 1000 mM NaCl, 0.6 mM DTT, 0.1 mg/ml BSA, 0.1 mM PMSF and 0.1 mM TLCK). 5 ul of [32P] oris DNA was added to 210 ul of cold binding buffer and incubated for 1 minute. 2 ul of either ADPRT (200 ng) or HSV-1 infected Vero cell extract (Vero(F), 2 ug) was then added to the DNA solution and incubated for 10 minutes at 25° C. Samples were transferred to ice, followed by filtration through the nitrocellulose filters. The filters were then washed four times with cold wash buffer containing 25 mM Tris-Cl, pH 8.0, 10 mM MgCl2, 0.5 mM DTT, 100 mM NaCl, 5% DMSO. The filters were dried and the amount of radioactive material bound to the filters was determined by scintillation spectrophotometry.

In the case of `O=Nc1ccc2oc(=O)ccc2c1` [6-NBP, 6-nitroso-1,2-benzopyrone], the “binding to zinc-fingers of ADPRT” value (ADPRT [1]) is reported as “binds specifically and with high affinity”.

In the case of `O=c1ccc2ccccc2o1` [1,2-benzopyrone], the “inhibition of ADPRT” value (ADPRT [2]) is given as “inhibitory ligand”.

For `Nc1nc2c(ncn2COCCO)c(=O)[nH]1` [acyclovir], the “CMV sensitivity” value (CMV) is listed as “CMV is resistant to acyclovir”.

For ADPRT, the “% Specific Bound” value (oris DNA of HSV-1) was 78.6% and ~80% and the “CPM Bound to Filter” value (oris DNA of HSV-1; average of duplicate samples) was 6384 CPM.
